Test results taken from patent US20080051457A1, “Optically Active Phthalamide Derivative, Agricultural or Horticultural Insecticide, and Method of Using the Same” (priority 2004, published 2008).

Assay: logP (pH2.3), physical properties of Tables 1 to 3
Assay type: physicochemical
Details: not given
Excerpt: However, the present invention is not limited to these compounds. In the tables, the term “physical properties” means a melting point or logp. The symbol “Me” represents a methyl group, “Et” represents an ethyl group, “Pr” represents a propyl group, “-n” represents normal, and “-i” represents iso.

SMILES | Physical properties logP(pH2.3)
CC[C@@H](CSC)NC(=O)c1c(Cl)cccc1C(=O)Nc1ccc(C(F)(C(F)(F)F)C(F)(F)F)cc1C [Compound 1-339] | 4.47
CC[C@@H](CS(C)(=O)=O)NC(=O)c1c(Cl)cccc1C(=O)Nc1ccc(C(F)(C(F)(F)F)C(F)(F)F)cc1C [Compound 1-341] | 3.31
CC[C@@H](CSC)NC(=O)c1c(Br)cccc1C(=O)Nc1ccc(C(F)(C(F)(F)F)C(F)(F)F)cc1C [Compound 1-342] | 4.54
CC[C@@H](C[S+](C)[O-])NC(=O)c1c(Br)cccc1C(=O)Nc1ccc(C(F)(C(F)(F)F)C(F)(F)F)cc1C (stereo partly drawn) [Compound 1-343] | 2.83
CC[C@@H](CS(C)(=O)=O)NC(=O)c1c(Br)cccc1C(=O)Nc1ccc(C(F)(C(F)(F)F)C(F)(F)F)cc1C [Compound 1-344] | 3.37
CC[C@@H](CSC)NC(=O)c1c(I)cccc1C(=O)Nc1ccc(C(F)(C(F)(F)F)C(F)(F)F)cc1C [Compound 1-345] | 4.62
CC[C@@H](C[S+](C)[O-])NC(=O)c1c(I)cccc1C(=O)Nc1ccc(C(F)(C(F)(F)F)C(F)(F)F)cc1C (stereo partly drawn) [Compound 1-346] | 2.90
CC[C@@H](CS(C)(=O)=O)NC(=O)c1c(I)cccc1C(=O)Nc1ccc(C(F)(C(F)(F)F)C(F)(F)F)cc1C [Compound 1-347] | 3.45
CSC[C@@H](NC(=O)c1c(Cl)cccc1C(=O)Nc1ccc(C(F)(C(F)(F)F)C(F)(F)F)cc1C)C(C)C [Compound 1-348] | 4.77
Cc1cc(C(F)(C(F)(F)F)C(F)(F)F)ccc1NC(=O)c1cccc(Cl)c1C(=O)N[C@H](C[S+](C)[O-])C(C)C (stereo partly drawn) [Compound 1-349] | 3.03
Cc1cc(C(F)(C(F)(F)F)C(F)(F)F)ccc1NC(=O)c1cccc(Cl)c1C(=O)N[C@H](CS(C)(=O)=O)C(C)C [Compound 1-350] | 3.54
CSC[C@@H](NC(=O)c1c(Br)cccc1C(=O)Nc1ccc(C(F)(C(F)(F)F)C(F)(F)F)cc1C)C(C)C [Compound 1-351] | 4.80
Cc1cc(C(F)(C(F)(F)F)C(F)(F)F)ccc1NC(=O)c1cccc(Br)c1C(=O)N[C@H](C[S+](C)[O-])C(C)C (stereo partly drawn) [Compound 1-352] | 3.06
Cc1cc(C(F)(C(F)(F)F)C(F)(F)F)ccc1NC(=O)c1cccc(Br)c1C(=O)N[C@H](CS(C)(=O)=O)C(C)C [Compound 1-353] | 3.62
CSC[C@@H](NC(=O)c1c(I)cccc1C(=O)Nc1ccc(C(F)(C(F)(F)F)C(F)(F)F)cc1C)C(C)C [Compound 1-354] | 4.97
Cc1cc(C(F)(C(F)(F)F)C(F)(F)F)ccc1NC(=O)c1cccc(I)c1C(=O)N[C@H](C[S+](C)[O-])C(C)C (stereo partly drawn) [Compound 1-355] | 3.13
Cc1cc(C(F)(C(F)(F)F)C(F)(F)F)ccc1NC(=O)c1cccc(I)c1C(=O)N[C@H](CS(C)(=O)=O)C(C)C [Compound 1-356] | 3.70
CSC[C@H](CC(C)C)NC(=O)c1c(Cl)cccc1C(=O)Nc1ccc(C(F)(C(F)(F)F)C(F)(F)F)cc1C [Compound 1-357] | 5.11
Cc1cc(C(F)(C(F)(F)F)C(F)(F)F)ccc1NC(=O)c1cccc(Cl)c1C(=O)N[C@@H](CC(C)C)C[S+](C)[O-] (stereo partly drawn) [Compound 1-358] | 3.27
Cc1cc(C(F)(C(F)(F)F)C(F)(F)F)ccc1NC(=O)c1cccc(Cl)c1C(=O)N[C@@H](CC(C)C)CS(C)(=O)=O [Compound 1-359] | 3.77

Same assay, conditions: Table 1

SMILES | Physical properties: logP
CCS(=O)(=O)C[C@H](C)NC(=O)c1c(Br)cccc1C(=O)Nc1cc(F)c(OC(F)(F)F)cc1Cl [Compound 1-194] | 2.96
CCSC[C@H](C)NC(=O)c1c(Br)cccc1C(=O)Nc1cc(F)c(OC(F)(F)F)cc1Br [Compound 1-195] | 4.18
CCS(=O)(=O)C[C@H](C)NC(=O)c1c(Br)cccc1C(=O)Nc1cc(F)c(OC(F)(F)F)cc1Br [Compound 1-197] | 2.99
CCSC[C@H](C)NC(=O)c1c(Br)cccc1C(=O)Nc1ccc(C(F)(C(F)(F)F)C(F)(F)F)c(F)c1C [Compound 1-198] | 4.63
CC[S+]([O-])C[C@H](C)NC(=O)c1c(Br)cccc1C(=O)Nc1ccc(C(F)(C(F)(F)F)C(F)(F)F)c(F)c1C (stereo partly drawn) [Compound 1-199] | 2.90
CCS(=O)(=O)C[C@H](C)NC(=O)c1c(Br)cccc1C(=O)Nc1ccc(C(F)(C(F)(F)F)C(F)(F)F)c(F)c1C [Compound 1-200] | 3.39
CCSC[C@H](C)NC(=O)c1c(Cl)cccc1C(=O)Nc1ccc(C(F)(C(F)(F)F)C(F)(F)F)c(F)c1C [Compound 1-201] | 4.54
CC[S+]([O-])C[C@H](C)NC(=O)c1c(Cl)cccc1C(=O)Nc1ccc(C(F)(C(F)(F)F)C(F)(F)F)c(F)c1C (stereo partly drawn) [Compound 1-202] | 2.86
CCS(=O)(=O)C[C@H](C)NC(=O)c1c(Cl)cccc1C(=O)Nc1ccc(C(F)(C(F)(F)F)C(F)(F)F)c(F)c1C [Compound 1-203] | 3.34
CSC[C@H](C)NC(=O)c1c(Cl)cccc1C(=O)Nc1ccc(C(F)(C(F)(F)F)C(F)(F)F)c(F)c1C [Compound 1-204] | 4.23
Cc1c(NC(=O)c2cccc(Cl)c2C(=O)N[C@@H](C)C[S+](C)[O-])ccc(C(F)(C(F)(F)F)C(F)(F)F)c1F (stereo partly drawn) [Compound 1-205] | 2.69
CCSC[C@H](C)NC(=O)c1c(Cl)cccc1C(=O)Nc1ccc(C(F)(F)C(F)(F)F)c(F)c1C [Compound 1-207] | 4.21
CC[S+]([O-])C[C@H](C)NC(=O)c1c(Cl)cccc1C(=O)Nc1ccc(C(F)(F)C(F)(F)F)c(F)c1C (stereo partly drawn) [Compound 1-208] | 2.56
CCS(=O)(=O)C[C@H](C)NC(=O)c1c(Cl)cccc1C(=O)Nc1ccc(C(F)(F)C(F)(F)F)c(F)c1C [Compound 1-209] | 3.01
CCSC[C@H](C)NC(=O)c1c(Cl)cccc1C(=O)Nc1ccc(C(F)(F)C(F)(F)F)c(Cl)c1C [Compound 1-210] | 4.37
CCS(=O)(=O)C[C@H](C)NC(=O)c1c(Cl)cccc1C(=O)Nc1ccc(C(F)(F)C(F)(F)F)c(Cl)c1C [Compound 1-212] | 3.14
CSC[C@H](C)NC(=O)c1c(Cl)cccc1C(=O)Nc1ccc(C(F)(F)C(F)(F)F)c(F)c1C [Compound 1-213] | 3.88
Cc1c(NC(=O)c2cccc(Cl)c2C(=O)N[C@@H](C)CS(C)(=O)=O)ccc(C(F)(F)C(F)(F)F)c1F [Compound 1-215] | 2.82
CCc1cc(C(F)(C(F)(F)F)C(F)(F)F)ccc1NC(=O)c1cccc(Cl)c1C(=O)N[C@@H](C)CSC [Compound 1-216] | 4.36
CCc1cc(C(F)(C(F)(F)F)C(F)(F)F)ccc1NC(=O)c1cccc(Cl)c1C(=O)N[C@@H](C)CS(C)(=O)=O [Compound 1-218] | 3.26
CCc1cc(C(F)(C(F)(F)F)C(F)(F)F)ccc1NC(=O)c1cccc(Br)c1C(=O)N[C@@H](C)CSC [Compound 1-219] | 4.42
CCc1cc(C(F)(C(F)(F)F)C(F)(F)F)ccc1NC(=O)c1cccc(Br)c1C(=O)N[C@@H](C)CS(C)(=O)=O [Compound 1-221] | 3.31
